The values that follow come from patent US20150225369A1, “DDR2 INHIBITORS FOR THE TREATMENT OF OSTEOARTHRITIS” (Merck Patent GmbH, priority 2012, published 2015).

The target in experiment [1] is T1, HEK293 transfected with human DDR2 (Homo sapiens, UniProt Q16832).
T1 construct: expressed in transfected cells; host or cells: HEK293 (PLT460F_(DDR2)-P7-1)
T1 sequence (Q16832 22-855): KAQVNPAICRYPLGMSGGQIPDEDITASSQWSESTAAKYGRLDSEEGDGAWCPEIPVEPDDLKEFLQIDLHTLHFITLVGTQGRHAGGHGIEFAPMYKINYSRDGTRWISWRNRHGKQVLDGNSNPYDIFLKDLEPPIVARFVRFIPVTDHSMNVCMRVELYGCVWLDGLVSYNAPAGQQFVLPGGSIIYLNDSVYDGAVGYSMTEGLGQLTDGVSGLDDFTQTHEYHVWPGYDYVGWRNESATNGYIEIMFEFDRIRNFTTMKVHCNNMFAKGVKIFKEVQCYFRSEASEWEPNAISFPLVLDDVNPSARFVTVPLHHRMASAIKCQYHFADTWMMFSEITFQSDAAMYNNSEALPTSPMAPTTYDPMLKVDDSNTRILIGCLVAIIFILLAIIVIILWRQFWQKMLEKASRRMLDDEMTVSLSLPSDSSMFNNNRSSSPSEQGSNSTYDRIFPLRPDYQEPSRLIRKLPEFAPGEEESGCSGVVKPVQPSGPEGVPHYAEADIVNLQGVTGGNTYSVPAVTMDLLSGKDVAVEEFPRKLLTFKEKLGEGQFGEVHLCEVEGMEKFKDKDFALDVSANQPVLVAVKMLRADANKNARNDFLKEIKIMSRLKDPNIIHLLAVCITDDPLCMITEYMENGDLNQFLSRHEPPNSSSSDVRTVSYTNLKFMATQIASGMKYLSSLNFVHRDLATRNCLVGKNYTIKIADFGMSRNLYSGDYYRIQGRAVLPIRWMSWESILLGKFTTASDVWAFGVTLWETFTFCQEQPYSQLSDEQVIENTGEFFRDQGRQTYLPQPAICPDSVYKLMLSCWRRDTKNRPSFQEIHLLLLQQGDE
Briefly: Phospho-DDR2 cellular assay (collagen II induced DDR2 phosphorylation, ELISA). In kind it is cell-based. As to conditions: cellular phospho-DDR2; read-out: IC50 [p-DDR2]. The gist of the method:
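Cells seeded 48 h in 10% FBS, serum-starved 8 h, then given compound (5% DMSO) with 50 μg/ml chicken collagen II for 16 h at 37 °C. Lysates captured on anti-DDR2 antibody plates; phospho-DDR2 detected with HRP anti-phosphotyrosine antibody by chemiluminescence.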

For experiment [2], the target named is T2, His-tagged human recombinant DDR-2 kinase domain (His-TEV-DDR2 467-855 aa) (Homo sapiens, UniProt Q16832).
T2 construct: His-TEV-DDR2 467-855 aa
T2 sequence (Q16832 467-855): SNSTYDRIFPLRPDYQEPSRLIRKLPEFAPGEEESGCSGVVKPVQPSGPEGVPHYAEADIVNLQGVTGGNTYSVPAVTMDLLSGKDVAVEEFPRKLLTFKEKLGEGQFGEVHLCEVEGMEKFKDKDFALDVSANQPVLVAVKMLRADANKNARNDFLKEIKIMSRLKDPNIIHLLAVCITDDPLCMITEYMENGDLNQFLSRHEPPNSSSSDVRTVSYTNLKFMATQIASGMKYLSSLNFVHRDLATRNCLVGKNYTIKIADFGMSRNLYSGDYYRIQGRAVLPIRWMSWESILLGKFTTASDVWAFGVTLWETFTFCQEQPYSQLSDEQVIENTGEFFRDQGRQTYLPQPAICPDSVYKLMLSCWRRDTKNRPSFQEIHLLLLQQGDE
As to the kind of experiment: Autophosphorylation assay for biochemical activity testing of DDR2 (HTRF). The settings on record: biochemical DDR2 autophosphorylation. The gist of the method: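 Phospho-tyrosine was detected by HTRF between XL665 anti-6His and cryptate anti-phosphotyrosine PT66 antibodies, using the emission ratio. Inhibition was referenced to the inhibitor-free reaction.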
(In general: In TR-FRET formats the signal depends on donor and acceptor labels being close together.)

The IC50 is the concentration that gives 50% inhibition. For `CNC(=O)c1cc(Oc2ccc(CNC(=O)Nc3cc(C(F)(F)F)c(Cl)cc3OC3CCNCC3)cc2)ccn1` [compound 130, 4-(4-{3-[4-Chloro-2-(piperidin-4-yloxy)-5-trifluoromethyl-phenyl]-ureidomethyl}-phenoxy)-pyridine-2-carboxylic acid methylamide], the IC50 in experiment [1] is 24 nM; in experiment [2], 34 nM.

Consider `CNC(=O)c1cc(Oc2ccc(CNC(=O)Nc3cc(C)c(Cl)cc3OCCN(C)C)cc2C)ccn1` [compound 139, 4-(4-{3-[4-Chloro-2-(2-dimethylamino-ethoxy)-5-methyl-phenyl]-ureidomethyl}-2-methyl-phenoxy)-pyridine-2-carboxylic acid methylamide], for which the IC50 in experiment [1] was found to be 18 nM; in experiment [2], 26 nM.

With `CNCCOc1cc(Cl)c(C)cc1NC(=O)NCc1ccc(Oc2ccnc(C(=O)NC)c2)c(C)c1` [compound 141, 4-(4-{3-[4-Chloro-5-methyl-2-(2-methylamino-ethoxy)-phenyl]-ureidomethyl}-2-methyl-phenoxy)-pyridine-2-carboxylic acid methylamide], the figures for the IC50 in experiment [1] and in experiment [2] were 25 nM and 43 nM, respectively.

With `CNC(=O)c1cc(Oc2ccc(CNC(=O)Nc3cc(C)c(Cl)cc3OC3CCNCC3)cc2C)ccn1` [compound 142, 4-(4-{3-[4-Chloro-5-methyl-2-(piperidin-4-yloxy)-phenyl]-ureidomethyl}-2-methyl-phenoxy)-pyridine-2-carboxylic acid methylamide], the IC50 is 33 nM in experiment [1] and 36 nM in experiment [2].

Consider `CNC(=O)c1cc(Oc2ccc(CNC(=O)Nc3cc(C)c(Cl)cc3OCCN3CCNCC3)cc2C)ccn1` [compound 143, 4-(4-{3-[4-Chloro-5-methyl-2-(2-piperazin-1-yl-ethoxy)-phenyl]-ureidomethyl}-2-methyl-phenoxy)-pyridine-2-carboxylic acid methylamide], for which the IC50 in experiment [1] stood at 66 nM; in experiment [2] it was 77 nM.

On to `CNC(=O)c1cc(Oc2ccc(CNC(=O)Nc3cc(C)c(Cl)cc3OCCN)cc2C)ccn1` [compound 144, 4-(4-{3-[2-(2-Amino-ethoxy)-4-chloro-5-methyl-phenyl]-ureidomethyl}-2-methyl-phenoxy)-pyridine-2-carboxylic acid methylamide], for which the IC50 in experiment [1] stood at 53 nM; in experiment [2], 49 nM.

Consider `CNC(=O)c1cc(Oc2ccc(CNC(=O)Nc3cc(C)c(Cl)cc3OCCN)cc2)ccn1` [compound 145, 4-(4-{3-[2-(2-Amino-ethoxy)-4-chloro-5-methyl-phenyl]-ureidomethyl}-phenoxy)-pyridine-2-carboxylic acid methylamide], for which the IC50 in experiment [1] was determined as 65 nM; in experiment [2] it was 91 nM.

As for `CNCCOc1ccc(C(F)(F)F)cc1NC(=O)NCc1ccc(Oc2ccnc(C(=O)NC)c2)c(C)c1` [compound 146, 4-(2-Methyl-4-{3-[2-(2-methylamino-ethoxy)-5-trifluoromethyl-phenyl]-ureidomethyl}-phenoxy)-pyridine-2-carboxylic acid methylamide], the IC50 was determined as 15 nM in experiment [1] and 33 nM in experiment [2].

For `CNC(=O)c1cc(Oc2ccc(CNC(=O)Nc3cc(C(F)(F)F)ccc3OCCN(C)C)cc2C)ccn1` [compound 150, 4-(4-{3-[2-(2-Dimethylamino-ethoxy)-5-trifluoromethyl-phenyl]-ureidomethyl}-2-methyl-phenoxy)-pyridine-2-carboxylic acid methylamide], the IC50 in experiment [1] is 10 nM; in experiment [2], 42 nM.

For the compound `CNC(=O)c1cc(Oc2ccc(CNC(=O)Nc3cc(C)c(Cl)cc3OCCCN(C)C)cc2)ccn1` [compound 153, 4-(4-{3-[4-Chloro-2-(3-dimethylamino-propoxy)-5-methyl-phenyl]-ureidomethyl}-phenoxy)-pyridine-2-carboxylic acid methylamide], the IC50 in experiment [1] was 55 nM; in experiment [2] it was 140 nM.

In the case of `CNC(=O)c1cc(Oc2ccc(CNC(=O)Nc3cc(C(F)(F)F)ccc3OCCN)cc2C)ccn1` [compound 155, 4-(4-{3-[2-(2-Amino-ethoxy)-5-trifluoromethyl-phenyl]-ureidomethyl}-2-methyl-phenoxy)-pyridine-2-carboxylic acid methylamide], the IC50 was determined as 18 nM in experiment [1] and 40 nM in experiment [2].

As for `CNC(=O)c1cc(Oc2ccc(CNC(=O)Nc3cc(C(F)(F)F)ccc3OCC3CCCN3)cc2)ccn1` (stereo not shown) [compound 156, 4-(4-{3-[2-(Pyrrolidin-2-ylmethoxy)-5-trifluoromethyl-phenyl]-ureidomethyl}-phenoxy)-pyridine-2-carboxylic acid methylamide], the IC50 in experiment [1] was 16 nM; in experiment [2], 43 nM.

In the case of `CNC(=O)c1cc(Oc2ccc(CNC(=O)Nc3cc(C(F)(F)F)ccc3OCC(C)(C)N)cc2)ccn1` [compound 160, 4-(4-{3-[2-(2-Amino-2-methyl-propoxy)-5-trifluoromethyl-phenyl]-ureidomethyl}-phenoxy)-pyridine-2-carboxylic acid methylamide], the IC50 in experiment [1] was 95 nM; in experiment [2] it was 360 nM.

In the case of `CNC(=O)c1cc(Oc2ccc(CNC(=O)Nc3cc(C)c(Cl)cc3OCCCN(C)C)cc2C)ccn1` [compound 163, 4-(4-{3-[4-Chloro-2-(3-dimethylamino-propoxy)-5-methyl-phenyl]-ureidomethyl}-2-methyl-phenoxy)-pyridine-2-carboxylic acid methylamide], the IC50 in experiment [1] stood at 16 nM; in experiment [2], 40 nM.

On to `CNCCOc1ccccc1NC(=O)NCc1ccc(Oc2ccnc(C(=O)NC)c2)cc1` [compound 169, 4-(4-{3-[2-(2-Methylamino-ethoxy)-phenyl]-ureidomethyl}-phenoxy)-pyridine-2-carboxylic acid methylamide], for which the IC50 in experiment [1] was 1900 nM; in experiment [2], 2800 nM.

With `CNCCOc1ccc(C)cc1NC(=O)NCc1ccc(Oc2ccnc(C(=O)NC)c2)cc1` [compound 170, 4-(4-{3-[5-Methyl-2-(2-methylamino-ethoxy)-phenyl]-ureidomethyl}-phenoxy)-pyridine-2-carboxylic acid methylamide], the results for the concentration for half-maximal inhibition (IC50) in experiment [1] and in experiment [2] were 195 nM and 310 nM, respectively.

Consider `CNC(=O)c1cc(Oc2ccc(CNC(=O)Nc3cc(C(F)(F)F)ccc3OCCNC(C)C)cc2)ccn1` [compound 172, 4-(4-{3-[2-(2-Isopropylamino-ethoxy)-5-trifluoromethyl-phenyl]-ureidomethyl}-phenoxy)-pyridine-2-carboxylic acid methylamide], for which the IC50 in experiment [1] was found to be 31 nM; in experiment [2], 140 nM.

For the compound `CNC(=O)c1cc(Oc2ccc(CNC(=O)Nc3cc(Cl)c(C)cc3OCCN(C)C)cc2)ccn1` [compound 174, 4-(4-{3-[5-Chloro-2-(2-dimethylamino-ethoxy)-4-methyl-phenyl]-ureidomethyl}-phenoxy)-pyridine-2-carboxylic acid methylamide], the half-maximal inhibitory concentration (IC50) amounted to 28 nM in experiment [1] and 140 nM in experiment [2].

For `CNCCOc1cc(C)c(Cl)cc1NC(=O)NCc1ccc(Oc2ccnc(C(=O)NC)c2)cc1` [compound 177, 4-(4-{3-[5-Chloro-4-methyl-2-(2-methylamino-ethoxy)-phenyl]-ureidomethyl}-phenoxy)-pyridine-2-carboxylic acid methylamide], the IC50 in experiment [1] came to 27 nM; in experiment [2] it was 74 nM.

On to `CNC(=O)c1cc(Oc2ccc(CNC(=O)Nc3cc(Cl)c(C)cc3OC3CCNCC3)cc2)ccn1` [compound 178, 4-(4-{3-[5-Chloro-4-methyl-2-(piperidin-4-yloxy)-phenyl]-ureidomethyl}-phenoxy)-pyridine-2-carboxylic acid methylamide], for which the IC50 in experiment [1] is 25 nM; in experiment [2], 35 nM.
